Data published in US5141627A, “Chelators whose affinity for calcium ion is increased by illumination” (The Regents of the University of California, priority 1989, dated 1992).

How the values were obtained:
[1] = Flash photolysis kinetics of carboxylic acid formation (H+ release, cresol red); format: physicochemical; conditions: pH 8.0, 20° C.; for τ, time constant of phenylacetate formation and H+ release after flash photolysis, free: zero [Ca2+]
Excerpt: When a diazoketone is photolyzed in aqueous solution the major ultimate product is a carboxylic acid. […] Product formation is thus accompanied by proton release generated (Compound 3c, Scheme I). Product formation is thus accompanied by proton release which is readily monitored spectroscopically if a suitable acid-base indicator is used. Cresol red (pKa 8.2) is chosen to monitor proton release following flash photolysis of the diazo compounds in aqueous solutions adjusted to pH 8. […] The absorbance of cresol red at 572 nm decreases with decreasing pH. As the carboxylic acid product, 3c, is generated, the solution acidifies and the transmittance of the sample is expected to rise. […] The chemical structure of the photo-labile chromophore in diazo-3 is essentially identical to that in diazo-2 (FIG. 6, Scheme IV). Correspondingly, flash photolysis of diazo-3 under identical conditions yield experimental traces which were qualitatively the same as those obtained for diazo-2. In Table I is presented the characteristic time constants for carboxylic acid formation following flash photolysis of diazo-2 and diazo-3. Flash photolysis of Ca^2+ -bound diazo-2 produced the carboxylic acid with a characteristic time of 134 μs. The time slowed to 433 μs when Ca^2+ -free diazo-2 was photolyzed.
Diazo-2 was dissolved at 70 μM concentration in 100 mM KCl, 40 μM H4. BAPTA, and enough cresol red to yield OD572 =0.1 after the solution has been adjusted to pH 8. Transmitted light intensity at 572 nm was monitored using an HG-Xe.arc lamp, a monochromator, a photo multiplier and a Biomation transient recorder. Each small division of the ordinate corresponds to 0.002 absorbance unit. The small upward spike at time zero is an optical artifact from the xenon flash lamp. The solid trace is from the sample containing diazo-2. For comparison, the dotted trace is from a photochemically inert sample containing cresol red in 100 mM KCl at pH about 8.
Kinetics of the conversion of diazo-2 and diazo-3 to the carboxylic acid products and the kinetics of Ca^2+ binding by photolyzed diazo-2 were measured by flash photolysis and pH monitoring. The experiments were done in a Dialog apparatus (Garching, FRG) normally used for temperature jumps. The xenon flash lamp was a Model 6100SP7 (Photochemical Research Associates, London, Ontario, Canada) modified to give a light pulse with a full width at half maximum of 85 μs. The output of the xenon lamp was passed through a UG-2 filter to yield broad-band UV radiation in the 330-390 range. Since neither the flash lamp nor the kinetic spectrometer was optimized for light energy, the response amplitudes achieved in the experiments are far from those attainable during a biological experiment. […]

[2] = Quantum efficiency and completion of photolysis; format: physicochemical; conditions: for Φ quantum efficiency of photolysis, free: zero [Ca2+]
Description: Spectra were obtained after 0, 2, 5, 9, 16, 28, 46, 80, 150, 285, 505 and 903 sec of 365-nm illumination at 7.82×10^- 9 einsteins cm^-2 s^-1 from Spectroline lamp. For clarity only the 0-, 9-, 28-, 46-, 80-, 150-, and 505-s spectra are reproduced herein. The 505- and 903-s spectra were identical, confirming completion of photolysis after those times. Solutions were at 22±2° C.
The method was as described in FIG. 1B except that the EGTA was replaced by 2 mM CaCl2, and spectra were measured after 0-, 50-, 100-, 203-, 412-, 840-, 1730-, 4080-, and 8000-s illumination. The last two spectra were identical, confirming completion. For clarity the 50- and 8000-s spectra are omitted.
The photolysis quantum efficiencies of diazo chelators were determined by alternately irradiating a buffered solution of the substrate with a known intensity of longwave UV light, and measuring the absorbance spectrum, in apparatus described by S. R. Adams, et al. (1988), supra.

Compound	τ, time constant of phenylacetate formation and H+ release after flash photolysis, +Ca2+ ([1]; saturating [Ca2+], additional fast alkalinization component present)	τ, time constant of phenylacetate formation and H+ release after flash photolysis, free [1]	quantum yield of photolysis ([2]; 365 nm)	illumination time to completion of photolysis, free ([2]; 365 nm, 7.82×10^-9 einsteins cm^-2 s^-1, absence of Ca2+, 8 μM)	Φ quantum efficiency of photolysis, +Ca2+ ([2]; saturating [Ca2+])	Φ quantum efficiency of photolysis, free [2]	τ, time constant of phenylacetate formation and H+ release after flash photolysis, free ([1]; listed as Diazo-3)
Cc1ccc(N(CC(=O)O)CC(=O)O)c(OCCOc2cc(C(=O)C=[N+]=[N-])ccc2N(CC(=O)O)CC(=O)O)c1 [diazo-2, 1-(2-bis(carboxymethyl)amino-5-methyl) phenoxy-2-(2-bis(carboxymethyl)amino-5-(diazoacetyl)phenoxy) ethane]	134 μs	433 μs	0.030	≤ 505 s	0.030	0.057	
COc1cc(C(=O)C=[N+]=[N-])ccc1N(CC(=O)O)CC(=O)O [diazo-3, 2-methoxy-4-(diazoacetyl)aniline-N, N-diacetic acid]		239 μs				0.048	238 μs
